# Data: patent publication US7915291B2, “Hepatitis C virus inhibitors” (Bristol-Myers Squibb Company, priority 2002, dated 2011)
# What was measured:
# [1] = molecular target: HCV NS3/4A protease complex, BMS strain (UniProt P27958, C1454S/C1711G, species not given/STRAIN_BMS); assay: Recombinant HCV NS3/4A protease complex FRET peptide assay (BMS strain); assay type: biochemical, HCV genotype 1a; settings: NS3/4A BMS strain; read-out: IC50 range
# Summary of the method: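 Recombinant BMS-strain NS3/4A (His-tagged NS4A with three-lysine tail, E. coli) at 2-3 nM preincubated 1 min with compound, then 2 μM ester-linked NS4A/NS4B-based FRET peptide added. Fluorescence followed in real time ~15 min at 25° C. Percent inhibition from slope of linear fluorescence change versus no-compound control.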
# [2] = test system: HCV replicon in Huh7 cells; assay: HCV replicon cell-based assay; parameters: species or system HCV strain 1B; settings: Hepatitis C virus, Huh-7; HCV replicon, Huh7 cells; read-out: EC50 range
# HCV = settings: cited from earlier work
Compound,IC50 [1] [nM],EC50 [2] [nM],"sustained efficacy, share of patients (HCV; HCV infected patients, combination therapy) [%]","clinical comparison as monotherapy (HCV; HCV patients, monotherapy, recent clinical results)"
C=C[C@@H]1C[C@]1(NC(=O)[C@@H]1C[C@@H](Oc2ccnc3ccccc23)CN1C(=O)[C@@H](NC(=O)OC(C)(C)C)C(C)(C)C)C(=O)NS(C)(=O)=O [Compound 386],100 to 1000,1000 to 10000,,
C=C[C@@H]1C[C@]1(NC(=O)[C@@H]1C[C@@H](Oc2cc(C(F)(F)F)nc3ccc(C)cc23)CN1C(=O)[C@@H](NC(=O)OC(C)(C)C)C(C)(C)C)C(=O)NS(=O)(=O)C1CC1 [Compound 410],< 100,< 100,,
C=C[C@@H]1C[C@]1(NC(=O)[C@@H]1C[C@@H](Oc2cc(-c3ccccc3)ncn2)CN1C(=O)[C@@H](NC(=O)OC(C)(C)C)C(C)(C)C)C(=O)NS(=O)(=O)C1CC1 [Compound 411],< 100,100 to 1000,,
C=C[C@@H]1C[C@]1(NC(=O)[C@@H]1C[C@@H](Oc2cc(-c3cccs3)ncn2)CN1C(=O)[C@@H](NC(=O)OC(C)(C)C)C(C)(C)C)C(=O)NS(=O)(=O)C1CC1 [Compound 412],< 100,< 100,,
C=C[C@@H]1C[C@]1(NC(=O)[C@@H]1C[C@@H](Oc2cc(-c3ccccc3)nc(-c3cccs3)c2)CN1C(=O)[C@@H](NC(=O)OC(C)(C)C)C(C)(C)C)C(=O)NS(=O)(=O)C1CC1 [Compound 413],< 100,< 100,,
C=C[C@@H]1C[C@]1(NC(=O)[C@@H]1C[C@@H](Oc2cc(-c3ccccc3)nc(-c3ccc(OC)cc3)c2)CN1C(=O)[C@@H](NC(=O)OC(C)(C)C)C(C)(C)C)C(=O)NS(=O)(=O)C1CC1 [Compound 414],< 100,< 100,,
C=C[C@@H]1C[C@]1(NC(=O)[C@@H]1C[C@@H](Oc2cc(-c3ccccc3)nc(-c3ccccc3)c2)CN1C(=O)[C@@H](NC(=O)OC(C)(C)C)C(C)(C)C)C(=O)NS(=O)(=O)C1CC1 [Compound 415],< 100,< 100,,
C=C[C@@H]1C[C@]1(NC(=O)[C@@H]1C[C@@H](Oc2cncc(-c3ccccc3)c2)CN1C(=O)[C@@H](NC(=O)OC(C)(C)C)C(C)(C)C)C(=O)NS(=O)(=O)C1CC1 [Compound 420],< 100,100 to 1000,,
C=C[C@@H]1C[C@]1(NC(=O)[C@@H]1C[C@@H](Oc2ccnc(-c3ccccc3)c2)CN1C(=O)[C@@H](NC(=O)OC1CCCC1)C(C)(C)C)C(=O)NS(=O)(=O)C1CC1 [Compound 421],< 100,100 to 1000,,
C=C[C@@H]1C[C@]1(NC(=O)[C@@H]1C[C@@H](Oc2cncc(-c3ccncc3)c2)CN1C(=O)[C@@H](NC(=O)OC(C)(C)C)C(C)(C)C)C(=O)NS(=O)(=O)C1CC1 [Compound 422],< 100,1000 to 10000,,
C=C[C@@H]1C[C@]1(NC(=O)[C@@H]1C[C@@H](Oc2cncc(-c3ccoc3)c2)CN1C(=O)[C@@H](NC(=O)OC(C)(C)C)C(C)(C)C)C(=O)NS(=O)(=O)C1CC1 [Compound 424],< 100,100 to 1000,,
C=C[C@@H]1C[C@]1(NC(=O)[C@@H]1C[C@@H](Oc2ccnc(Br)c2)CN1C(=O)[C@@H](NC(=O)OC1CCCC1)C(C)(C)C)C(=O)NS(=O)(=O)C1CC1 [Compound 425],100 to 1000,1000 to 10000,,
C=C[C@@H]1C[C@]1(NC(=O)[C@@H]1C[C@@H](Oc2ccnc(-c3ccoc3)c2)CN1C(=O)[C@@H](NC(=O)OC1CCCC1)C(C)(C)C)C(=O)NS(=O)(=O)C1CC1 [Compound 426],< 100,100 to 1000,,
C=C[C@@H]1C[C@]1(NC(=O)[C@@H]1C[C@@H](Oc2ccnc(-c3ccc(F)cc3)c2)CN1C(=O)[C@@H](NC(=O)OC1CCCC1)C(C)(C)C)C(=O)NS(=O)(=O)C1CC1 [Compound 427],< 100,100 to 1000,,
C=C[C@@H]1C[C@]1(NC(=O)[C@@H]1C[C@@H](Oc2ccnc(-c3ccc(OC)cc3)c2)CN1C(=O)[C@@H](NC(=O)OC1CCCC1)C(C)(C)C)C(=O)NS(=O)(=O)C1CC1 [Compound 428],< 100,100 to 1000,,
C=C[C@@H]1C[C@]1(NC(=O)[C@@H]1C[C@@H](Oc2ccnc(-c3cccs3)c2)CN1C(=O)[C@@H](NC(=O)OC1CCCC1)C(C)(C)C)C(=O)NS(=O)(=O)C1CC1 [Compound 429],< 100,< 100,,
C=C[C@@H]1C[C@]1(NC(=O)[C@@H]1C[C@@H](Oc2ccnc(-c3ccsc3)c2)CN1C(=O)[C@@H](NC(=O)OC1CCCC1)C(C)(C)C)C(=O)NS(=O)(=O)C1CC1 [Compound 430],< 100,100 to 1000,,
C=C[C@@H]1C[C@]1(NC(=O)[C@@H]1C[C@@H](Oc2ccnc(-c3nccs3)c2)CN1C(=O)[C@@H](NC(=O)OC1CCCC1)C(C)(C)C)C(=O)NS(=O)(=O)C1CC1 [Compound 431],< 100,100 to 1000,,
C=C[C@@H]1C[C@]1(NC(=O)[C@@H]1C[C@@H](Oc2cncc(-c3nccs3)c2)CN1C(=O)[C@@H](NC(=O)OC(C)(C)C)C(C)(C)C)C(=O)NS(=O)(=O)C1CC1 [Compound 432],< 100,100 to 1000,,
C=C[C@@H]1C[C@]1(NC(=O)[C@@H]1C[C@@H](Oc2cncc(-c3csc(C)n3)c2)CN1C(=O)[C@@H](NC(=O)OC(C)(C)C)C(C)(C)C)C(=O)NS(=O)(=O)C1CC1 [Compound 433],100 to 1000,1000 to 10000,,
C=C[C@@H]1C[C@]1(NC(=O)[C@@H]1C[C@@H](Oc2ccnc(-c3cccn3C)c2)CN1C(=O)[C@@H](NC(=O)OC(C)(C)C)C(C)(C)C)C(=O)NS(=O)(=O)C1CC1 [Compound 434],< 100,100 to 1000,,
C=C[C@@H]1C[C@]1(NC(=O)[C@@H]1C[C@@H](Oc2cccc(-c3ccoc3)n2)CN1C(=O)[C@@H](NC(=O)OC(C)(C)C)C(C)(C)C)C(=O)NS(=O)(=O)C1CC1 [Compound 435],< 100,100 to 1000,,
C=C[C@@H]1C[C@]1(NC(=O)[C@@H]1C[C@@H](Oc2cccc(-c3ccccc3)n2)CN1C(=O)[C@@H](NC(=O)OC(C)(C)C)C(C)(C)C)C(=O)NS(=O)(=O)C1CC1 [Compound 436],< 100,100 to 1000,,
C=C[C@@H]1C[C@]1(NC(=O)[C@@H]1C[C@@H](Oc2cc(C)nc(-c3ccccc3)c2)CN1C(=O)[C@@H](NC(=O)OC(C)(C)C)C(C)(C)C)C(=O)NS(=O)(=O)C1CC1 [Compound 437],< 100,100 to 1000,,
C=C[C@@H]1C[C@]1(NC(=O)[C@@H]1C[C@@H](Oc2cc(C)nc(-c3cccs3)c2)CN1C(=O)[C@@H](NC(=O)OC(C)(C)C)C(C)(C)C)C(=O)NS(=O)(=O)C1CC1 [Compound 438],< 100,100 to 1000,,
C=CC1CC1(NC(=O)[C@@H]1C[C@@H](Oc2cc(C(F)(F)F)nc3ccc(F)cc23)CN1C(=O)[C@@H](NC(=O)OC(C)(C)C)C(C)(C)C)C(=O)NS(=O)(=O)C1CC1 (some centres unmarked) [Compound 450],< 100,100 to 1000,,
C=CC1CC1(NC(=O)[C@@H]1C[C@@H](OCc2ccc3ccccc3c2)CN1C(=O)[C@@H](NC(=O)OC(C)(C)C)C(C)(C)C)C(=O)NS(C)(=O)=O (some centres unmarked) [Compound 454],100 to 1000,1000 to 10000,,
alpha-interferon and ribavirin,,,40,
pegylated alpha-interferon,,,,superior to unmodified alpha-interferon
